pKd, pKi: −log10 of the molar value. Where a SMILES comes first, the peptide text is derived from it. [ ]: non-standard residue; d: D form. Trp(5-OH) = N[C@@H](Cc1c[nH]c2ccc(O)cc12)C(=O)O; Phe(4-Cl) = N[C@@H](Cc1ccc(Cl)cc1)C(=O)O; 4Pal = N[C@@H](Cc1ccncc1)C(=O)O; Ava = NCCCCC(=O)O; GABA = NCCCC(=O)O
Tests used:
[1] = molecular target: T1, Ephrin type-A receptor 4 [29-209] (Homo sapiens, UniProt P54764); assay: Fluorescence Polarization Assay; details: pH 7.2; 25 °C
T1 construct: 29-209
Procedure: For competitive binding assays, 1 mL of […] EphA4-LBD was pre-incubated with the tested compounds at various concentrations in 98 mL of PBS (pH 7.2) in 96-well black plates at roomtemperature for 10 min, after which 1 mL of 500 mMFITC-labeled EphA4 peptide was added to produce a final volume of […].

[2] = molecular target: T1, Ephrin type-A receptor 4 [29-209]; assay: Isothermal Titration Calorimetry (ITC); details: pH 6.5; 27 °C
Procedure: (§1) The purified EphA proteins (EphA4-LBD, EphA3-LBD, and EphA2-LBD) were dissolved in 50 mM potassium phosphate buffer (pH 6.5) containing 100 mM NaCl. Compound binding was detected at 27 °C by comparing either the 2D-[15N,1H]-HSQC or 2D-[13C,1H]-HSQC spectra of 50 mMEphA4-LBD in absence and presence of compounds at 50 mM. ITC were measured with Model ITC200 from Microcal/GE Life Sciences.

[3] = molecular target: T2, Ephrin type-A receptor 3 [29-207] (Homo sapiens, UniProt P29320); assay: Isothermal Titration Calorimetry (ITC); details: pH 6.5; 27 °C
T2 construct: 29-207
T2 sequence (P29320 whole entry): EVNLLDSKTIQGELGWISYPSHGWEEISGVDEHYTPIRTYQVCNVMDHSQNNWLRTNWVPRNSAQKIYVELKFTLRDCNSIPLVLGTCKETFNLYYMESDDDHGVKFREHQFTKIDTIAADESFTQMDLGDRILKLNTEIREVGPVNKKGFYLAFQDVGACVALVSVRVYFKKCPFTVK
Procedure: as §1

T1 sequence (P54764 29-209): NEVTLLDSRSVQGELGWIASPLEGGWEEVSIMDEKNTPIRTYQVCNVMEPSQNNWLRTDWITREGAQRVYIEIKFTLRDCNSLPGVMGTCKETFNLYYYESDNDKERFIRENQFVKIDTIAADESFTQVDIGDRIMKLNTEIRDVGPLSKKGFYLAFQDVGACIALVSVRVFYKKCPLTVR

| SMILES | pKi [1] | pKd [2] | pKd [3] |
| --- | --- | --- | --- |
| NCCCC(=O)N[C@@H](Cc1c[nH]c2ccc(O)cc12)C(=O)N[C@@H](Cc1ccc(Cl)cc1)C(=O)N[C@@H](Cc1ccncc1)C(=O)NCCc1cccc2ccccc12 [123C12] | 5.12 | – | – |
| NCCCC(=O)N[C@@H](Cc1c[nH]c2ccc(O)cc12)C(=O)N[C@@H](Cc1ccc(Cl)cc1)C(=O)N[C@@H](Cc1ccncc1)C(=O)N[C@H](Cc1c[nH]c2ccccc12)C(N)=O [120H10] (H-[GABA][Trp(5-OH)][Phe(4-Cl)][4Pal][dW]-NH2) | 6.02 | – | – |
| NCCCC(=O)N[C@@H](Cc1c[nH]c2ccc(O)cc12)C(=O)N[C@@H](Cc1ccc(Cl)cc1)C(=O)N[C@@H](Cc1ccncc1)C(=O)NCCc1c[nH]c2ccc(F)cc12 [123C3] | 5.65 | – | – |
| NCCCC(=O)N[C@@H](Cc1c[nH]c2ccc(O)cc12)C(=O)N[C@@H](Cc1ccc(Cl)cc1)C(=O)N[C@@H](Cc1ccncc1)C(=O)NCCc1c[nH]c2ccc(O)cc12 [123C5] | 5.59 | 5.66 | – |
| NCCCCC(=O)N[C@@H](Cc1c[nH]c2ccc(O)cc12)C(=O)N[C@@H](Cc1ccc(Cl)cc1)C(=O)N[C@@H](Cc1ccncc1)C(=O)N[C@H](Cc1c[nH]c2ccccc12)C(N)=O [123B1] (H-[Ava][Trp(5-OH)][Phe(4-Cl)][4Pal][dW]-NH2) | 5.52 | – | – |
| NCCC(=O)N[C@@H](Cc1c[nH]c2ccc(O)cc12)C(=O)N[C@@H](Cc1ccc(Cl)cc1)C(=O)N[C@@H](Cc1ccncc1)C(=O)N[C@H](Cc1ccncc1)C(N)=O [120G1] | 4.86 | – | – |
| NCCCC(=O)N[C@@H](Cc1c[nH]c2ccc(O)cc12)C(=O)N[C@@H](Cc1ccc(Cl)cc1)C(=O)N[C@@H](Cc1ccncc1)C(=O)NCCc1c[nH]c2ccc(Cl)cc12 [123C6] | 5.50 | – | – |
| NCCCC(=O)N[C@@H](Cc1c[nH]c2ccc(O)cc12)C(=O)N[C@@H](Cc1ccc(Cl)cc1)C(=O)N[C@@H](Cc1ccncc1)C(=O)NCCc1c[nH]c2ccccc12 [123C2] | 5.80 | 5.96 | – |
| COc1ccc2[nH]cc(CCNC(=O)[C@H](Cc3ccncc3)NC(=O)[C@H](Cc3ccc(Cl)cc3)NC(=O)[C@H](Cc3c[nH]c4ccc(O)cc34)NC(=O)CCCN)c2c1 [123C4] | – | – | 5.34 |
| NCCC(=O)N[C@@H](Cc1c[nH]c2ccc(O)cc12)C(=O)N[C@@H](Cc1ccc(Cl)cc1)C(=O)N[C@@H](Cc1ccncc1)C(=O)N[C@H](Cc1c[nH]c2ccccc12)C(N)=O [EphA4-LBC inhibitor, Compound 22] | 5.67 | 5.92 | – |
| CC(C)(N)C(C)(C)C(=O)N[C@@H](Cc1c[nH]c2ccc(O)cc12)C(=O)N[C@@H](Cc1ccc(Cl)cc1)C(=O)N[C@@H](Cc1ccncc1)C(=O)N[C@H](Cc1ccncc1)C(N)=O [120G2] | < 4.00 | – | – |
| COc1ccc2c(CCNC(=O)[C@H](Cc3ccncc3)NC(=O)[C@H](Cc3ccc(Cl)cc3)NC(=O)[C@H](Cc3c[nH]c4ccc(O)cc34)NC(=O)CCCN)c[nH]c2c1 [123C7] | 5.80 | 6.27 | – |

From BindingDB's records for doi:10.1016/j.chembiol.2017.01.006 (Sanford Burnham Prebys Medical Discovery Institute, 2017)
